Values of other authors, collected in publication PMC5664587 (Fluids and Barriers of the CNS, 2017).

Conditions: brain homogenate

SMILES: CC(C)NCC(O)COc1cccc2ccccc12 (stereo not shown) [propranolol]
- fu,brain, previously reported: 0.029
